From PMC4518038, “Identification of a Class of Protein ADP-Ribosylating Sirtuins in Microbial Pathogens” (Molecular Cell, 2015)

How the values were obtained:
EcoLplA = molecular target: T1, EcoLplA (Escherichia coli, UniProt P32099); experiment: lipoylation of GcvH / GcvH-L, anti-lipoyl immunoblot; assay type: biochemical; settings: co-substrate EcoGcvH, SauGcvH or SauGcvH-L; 1 uM LplA, 2 uM target protein, 30 min, 30 C
T1 construct: gene lplA
T1 sequence (P32099 2-338): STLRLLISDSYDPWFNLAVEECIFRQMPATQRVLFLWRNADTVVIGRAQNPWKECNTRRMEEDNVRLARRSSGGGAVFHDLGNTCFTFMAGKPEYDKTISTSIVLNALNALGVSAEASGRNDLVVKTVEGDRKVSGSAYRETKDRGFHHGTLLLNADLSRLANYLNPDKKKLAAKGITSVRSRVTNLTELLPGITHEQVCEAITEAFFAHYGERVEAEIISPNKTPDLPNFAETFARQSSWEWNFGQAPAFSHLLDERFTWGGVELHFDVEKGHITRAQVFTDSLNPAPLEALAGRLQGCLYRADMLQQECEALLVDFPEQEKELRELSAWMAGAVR

LplA2 (S. pyogenes) = molecular target: T2, LplA2 (S. pyogenes) (Streptococcus pyogenes, UniProt P0DN72); experiment: lipoylation of GcvH-L, anti-lipoyl immunoblot; assay type: biochemical; settings: co-substrate SpyGcvH-L; 1 uM LplA, 2 uM target protein, 30 min, 30 C
T2 construct: gene lplA
T2 sequence (P0DN72 whole entry): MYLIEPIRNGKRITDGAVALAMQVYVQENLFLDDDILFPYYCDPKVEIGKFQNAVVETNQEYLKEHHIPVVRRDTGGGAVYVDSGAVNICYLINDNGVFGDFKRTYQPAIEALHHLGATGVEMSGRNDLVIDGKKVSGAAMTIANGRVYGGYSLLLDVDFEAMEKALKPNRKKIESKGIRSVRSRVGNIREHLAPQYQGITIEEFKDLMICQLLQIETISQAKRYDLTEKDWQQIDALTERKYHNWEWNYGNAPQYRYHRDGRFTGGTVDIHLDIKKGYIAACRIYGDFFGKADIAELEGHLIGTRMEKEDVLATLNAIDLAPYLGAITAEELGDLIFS

SauLplA2 = molecular target: T3, SauLplA2 (Staphylococcus aureus, UniProt A0A0H3JX98); experiment: lipoylation of GcvH-L, anti-lipoyl immunoblot; assay type: biochemical; settings: co-substrate SauGcvH-L; 1 uM LplA, 2 uM target protein, 30 min, 30 C
T3 construct: gene SAV0327
T3 sequence (A0A0H3JX98 1-340): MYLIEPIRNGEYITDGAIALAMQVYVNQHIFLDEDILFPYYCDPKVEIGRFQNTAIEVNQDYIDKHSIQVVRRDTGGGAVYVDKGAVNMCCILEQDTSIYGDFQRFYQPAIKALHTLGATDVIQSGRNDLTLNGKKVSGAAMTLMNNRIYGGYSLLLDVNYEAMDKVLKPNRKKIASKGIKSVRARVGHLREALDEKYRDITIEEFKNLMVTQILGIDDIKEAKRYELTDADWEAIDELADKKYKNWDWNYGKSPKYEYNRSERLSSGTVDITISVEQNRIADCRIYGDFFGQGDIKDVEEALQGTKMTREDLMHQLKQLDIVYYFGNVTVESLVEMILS

SauLplA1 = molecular target: T4, SauLplA1 (Staphylococcus aureus, UniProt A0A0H3JR16); settings: co-substrate SauGcvH or SauGcvH-L; 1 uM LplA, 2 uM target protein, 30 min, 30 C
T4 construct: gene SAV1028
T4 sequence (A0A0H3JR16 whole entry): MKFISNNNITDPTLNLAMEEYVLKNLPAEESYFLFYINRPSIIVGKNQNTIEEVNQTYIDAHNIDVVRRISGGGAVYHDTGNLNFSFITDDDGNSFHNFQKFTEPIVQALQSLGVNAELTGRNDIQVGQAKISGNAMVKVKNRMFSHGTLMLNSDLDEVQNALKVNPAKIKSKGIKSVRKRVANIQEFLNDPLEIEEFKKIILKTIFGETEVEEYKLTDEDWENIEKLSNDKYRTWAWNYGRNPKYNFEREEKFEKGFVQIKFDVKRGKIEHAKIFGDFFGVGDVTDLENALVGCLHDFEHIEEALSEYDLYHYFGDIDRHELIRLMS

SpySirTM = molecular target: T5, SpySirTM (Streptococcus pyogenes, UniProt P0DN71); experiment: X-ray crystallography (crystal soak); assay type: binding; settings: 1 mM ligand soak, 10 min; 2.03 A; active site; also ADP-ribosyl donor for lipoylated GcvH-L
T5 construct: gene SpyM50869; crystal model residues 3-292 (7-10 not visible)
T5 sequence (P0DN71 whole entry, the tested form may be a part): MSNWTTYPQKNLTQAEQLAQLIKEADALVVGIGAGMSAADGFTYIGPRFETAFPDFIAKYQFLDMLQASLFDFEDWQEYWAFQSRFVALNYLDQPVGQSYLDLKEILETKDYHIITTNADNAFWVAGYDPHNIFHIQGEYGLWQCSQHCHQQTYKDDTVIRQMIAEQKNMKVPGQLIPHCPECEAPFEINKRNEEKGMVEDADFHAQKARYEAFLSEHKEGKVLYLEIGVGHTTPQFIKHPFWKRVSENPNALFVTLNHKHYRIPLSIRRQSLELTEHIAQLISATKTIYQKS

| Structure (SMILES) | lipoylation of GcvH / GcvH-L, anti-lipoyl immunoblot (EcoLplA) | lipoylation of GcvH-L, anti-lipoyl immunoblot (LplA2 (S. pyogenes)) | lipoylation of GcvH-L, anti-lipoyl immunoblot (SauLplA2) | lipoylation of GcvH / GcvH-L, anti-lipoyl immunoblot (SauLplA1) | X-ray crystallography (crystal soak) (SpySirTM) |
| --- | --- | --- | --- | --- | --- |
| O=C(O)CCCC[C@@H]1CCSS1 (racemic) [lipoic acid] | EcoLplA readily modifies all three GcvHs | both operonal LplA2s efficiently transferred lipoic acid (LA) onto GcvH-L | both operonal LplA2s efficiently transferred lipoic acid (LA) onto GcvH-L | SauLplA1 appears to be indiscriminative toward both S. aureus GcvHs |  |
| NC(=O)c1ccc[n+]([C@@H]2O[C@H](COP(=O)(O)OP(=O)(O)OC[C@H]3O[C@@H](n4cnc5c(N)ncnc54)[C@H](O)[C@@H]3O)[C@@H](O)[C@H]2O)c1 [NAD^+] |  |  |  |  | The ligand-SpySirTM complexes reveal that the general mode of NAD^+ binding to SpySirTM is similar |
